Test results reported in patent US9061009B2, “Mixed lineage kinases and metabolic disorders” (University of Massachusetts, priority 2007, dated 2015).
Each block holds one compound with its values, some of them ahead of it.

Key:
[1] = Development of insulin resistance in mice fed a high fat diet; format: in vivo; conditions: male mice, high fat diet 16 weeks; s.c. 0.5 or 2.5 mg/kg twice per day; vs control treatment
Description: The effects of the MLK inhibitor CEP-1347 on development of insulin resistance in mice is determined. Male mice are fed a high fat diet ad libitum (Diet F3282, Bio-Serv, Frenchtown, N.J.) or a standard diet for 16 weeks, with each group administered CEP-1347 subcutaneously (s.c.) at a dose of 0.5 or 2.5 mg/kg or vehicle control, twice per day. Body mass is recorded weekly, and blood samples are collected from the tail vain after an overnight fast after 6, 12, and 16 weeks on the diet. Blood glucose concentrations are measured with a DEX® glucometer (Bayer, Tarrytown, N.Y.), and plasma insulin is measured by ELISA kit for rat insulin (Crystal Chem, Downers Grove, Ill.). Glucose tolerance tests are performed by i.p. administration of glucose (1.8 g/kg) and measurement of blood glucose at t=15, 30, 60, 90, and 120 minutes in 16-week-old mice. Insulin tolerance tests are done similarly except with the injection of human insulin (1 unit per kg; Lilly Research Laboratories, Indianapolis). Untreated animals fed the high fat diet display hyperinsulinemia, hyperglycemia, decreased insulin sensitivity, and impaired glucose disposal.

[2] = Established insulin resistance in ob/ob mice; format: in vivo; conditions: s.c. 0.5 or 2.5 mg/kg twice per day for two weeks, vs vehicle control
Description: The effects of the MLK inhibitor CEP-1347 to alleviate established insulin resistance in mice is determined. Ten-week old ob/ob mice (Jackson Laboratory, Bar Harbor, Me.) are obese and display hyperinsulinemia, hyperglycemia, decreased insulin sensitivity, and impaired glucose disposal. Such mice are administered CEP-1347 subcutaneously (s.c.) at a dose of 0.5 or 2.5 mg/kg or vehicle control, twice per day for two weeks. Blood glucose concentrations are measured with a DEX® glucometer (Bayer, Tarrytown, N.Y.), and plasma insulin is measured by ELISA kit for rat insulin (Crystal Chem, Downers Grove, Ill.). Following day 14 of the treatment, glucose tolerance tests are performed by i.p. administration of glucose (1.8 g/kg) and measurement of blood glucose at t=15, 30, 60, 90, and 120 minutes. Insulin tolerance tests are performed similarly except with the injection of human insulin (1 unit per kg; Lilly Research Laboratories, Indianapolis).

[3] = system: diacylglycerol-responsive PKC isoforms (α, δ, and ε); assay: Down-regulation of PKC isoforms in MEF by phorbol ester; format: cell-based, mouse; conditions: 1 μM, 24 hours
Description: FIG. 7C is a set of nine gels depicting expression of PKCα, PKCδ, PKCε, MLK3, phospho-MLK3 (MLK3-P), JNK, and Tubulin and in vitro kinase activity (KA) on cJun (cJun-P) of PKGζ^−/− MEF pretreated with 1 μM TPA for 24 hours and then treated with 0.5 mM palmitate for 16 hours.
To test the requirement of PKC for FFA-stimulated MLK3 and JNK activation, the effect of PKC down-regulation was examined. In initial studies, siRNA was used to down-regulate the PKC isoforms expressed in MEF (PKCα, PKCδ, PKCε, and PKCζ). Down-regulation of individual PKC isoforms caused no change in FFA-induced MLK3 or JNK activation. […] Efficient simultaneous down-regulation of multiple PKC isoforms using siRNA was not obtained. An alternative approach was therefore used to obtain MEF lacking multiple PKC isoforms. […] The effect of pan-PKC deficiency was therefore examined by treating Pkcζ^−/− MEF with TPA (FIG. 7C).

MLK3 = MLK3 T-loop (Thr-277, Ser-281) phosphorylation immunoblot in MEF; format: cell-based, mouse; conditions: MEF pretreated with phorbol ester, then FFA
Description: Wild-type, Mkk4^−/−, Mkk7^−/−, and Mkk4^−/− Mkk7^−/− MEF (Tournier et al., 2001, Genes Dev., 15:1419-1426) and wild-type and Mlk3^−/− MEF have been previously described (Brancho et al., 2005, Mol. Cell. Biol., 25:3670-3681). Wild-type and Pkcζ^−/− MEF have also been described (Leitges et al., 2001, Mol. Cell, 8:771-780). MEF and HEK293 cells (American Type Culture Collection) were cultured in Dulbecco's modified Eagle's medium (DMEM) supplemented with 10% fetal bovine serum (Invitrogen, Carlsbad, Calif.). HEK293 cells were transfected with Lipofectamine™ transfection reagent (Invitrogen, Carlsbad, Calif.). Sodium salts of fatty acids (Sigma-Aldrich, St. Louis, Mo.) were dissolved in PBS and mixed with free fatty acid (FFA)-free BSA (Roche). Stearic acid (Sigma-Aldrich, St. Louis, Mo.) was dissolved in ethanol and added to serum-free DMEM supplemented with 2% FFA-free BSA. […]
Protein extracts were prepared using lysis buffer [20 mM Tris™ buffer (pH 7.4), 1% Triton™ X-100 detergent, 10% glycerol, 137 mM NaCl, 2 mM EDTA, 25 mM β-glycerophosphate, 1 mM sodium orthovanadate, 1 mM phenylmethylsulfonyl fluoride, and 10 μg/mL of aprotinin and leupeptin]. […] JNK activity was measured in an in vitro kinase assay using [γ-^32P]ATP and cJun as substrates (Whitmarsh and Davis, 2001, Methods Enzymol., 332:319-336). […]

JNK = assay: FFA-stimulated JNK activation in MEF (in vitro kinase assay with cJun / immunoblot); format: cell-based, mouse
Description: MEF and HEK293 cells (American Type Culture Collection) were cultured in Dulbecco's modified Eagle's medium (DMEM) supplemented with 10% fetal bovine serum (Invitrogen, Carlsbad, Calif.). […] Sodium salts of fatty acids (Sigma-Aldrich, St. Louis, Mo.) were dissolved in PBS and mixed with free fatty acid (FFA)-free BSA (Roche). Stearic acid (Sigma-Aldrich, St. Louis, Mo.) was dissolved in ethanol and added to serum-free DMEM supplemented with 2% FFA-free BSA. After 1 hour incubation in serum-free DMEM, cells were treated with 0.5 mM fatty acid/0.5% BSA for 1-16 hours at 37° C.
Protein extracts were prepared using lysis buffer [20 mM Tris™ buffer (pH 7.4), 1% Triton™ X-100 detergent, 10% glycerol, 137 mM NaCl, 2 mM EDTA, 25 mM β-glycerophosphate, 1 mM sodium orthovanadate, 1 mM phenylmethylsulfonyl fluoride, and 10 μg/mL of aprotinin and leupeptin]. Extracts (50 μg of protein) were examined by immunoblot analysis with antibodies obtained from Cell Signaling (MLK3, phosphoThr277, Ser281-MLK3, ERK, phospho-ERK, p38, phospho-p38, AKT, phosphoSer473-AKT, PKCα, PKCδ, phospho-T-loop-PKC, and phospho-JNK), Transduction Labs (PKCε), PharMingen (JNK), Sigma (α-Tubulin), and Upstate Biotechnology (IRS1, phosphoSer307-IRS1 and phospho-MKK7). JNK activity was measured in an in vitro kinase assay using [γ-^32P]ATP and cJun as substrates (Whitmarsh and Davis, 2001, Methods Enzymol., 332:319-336). […]

SMILES: CCSCc1ccc2c(c1)c1c3c(c4c5cc(CSCC)ccc5n5c4c1n2[C@H]1C[C@](O)(C(=O)OC)[C@]5(C)O1)CNC3=O [CEP-1347]
hyperinsulinemia, hyperglycemia, decreased insulin sensitivity, impaired glucose disposal [1]: decreases these symptoms | hyperinsulinemia and hyperglycemia [2]: decreases hyperinsulinemia and hyperglycemia | insulin and glucose tolerance [2]: at least partially restores insulin and glucose tolerance

SMILES: CCCCCCCCCCCCCC(=O)O[C@@H]1[C@@H](C)[C@@]2(O)[C@@H](C=C(CO)C[C@]3(O)C(=O)C(C)=C[C@@H]23)[C@@H]2C(C)(C)[C@]12OC(C)=O [TPA, Phorbol-12-Myristate-13-Acetate]
down-regulation of PKC isoforms [3]: caused down-regulation of diacylglycerol-responsive PKC isoforms (α, δ, and ε) | effect on FFA-induced MLK3 activation (MLK3): did not affect | effect on FFA-induced JNK activation (JNK; MEF pretreated with phorbol ester, then FFA): did not affect

JNK activation (JNK; MEF, 0.5 mM FFA, 16 hours): resulted in JNK activation
SMILES: CCCCCCCCCCCCCCCCCC(=O)O [stearate, stearic acid]
